# Assay results taken from patent US10556865B2, “Synergistic herbicidal composition containing certain pyridine or pyrimidine carboxylic acids and certain cereal and rice herbicides” (Dow AgroSciences, LLC, priority 2007, dated 2020).
# Columns and labels:
# Format in all cases: in vivo
# [1] = test system: Echinochloa species (ECHSS); assay: Herbicidal mixtures for weed control in transplanted paddy rice (in-water application, visual % injury after 3 weeks); details: for % Injury ECHOR Ob: ECHOR = Echinocloa oryzoides
# Procedure: Weed seeds or nutlets of the desired test plant species were planted in puddled soil (mud) prepared by mixing a non-sterilized mineral soil (28 percent silt, 18 percent clay, and 54 percent sand, with a pH of about 7.3 to 7.8 and an organic matter content of about 1.0 percent) and water at a ratio of 100 kilograms (kg) of soil to 19 L of water. The prepared mud was dispensed in 250 mL aliquots into 480 mL non-perforated plastic pots with a surface area of 91.6 square centimeters leaving a headspace of 3 centimeters in each pot. Rice seeds were planted in Sun Gro MetroMix® 306 planting mixture, which typically has a pH of 6.0 to 6.8 and an organic matter content of about 30 percent, in plastic plug trays. Seedlings at the second or third leaf stage of growth were transplanted into 650 mL of mud contained in 960 mL non-perforated plastic pots with a surface area of 91.6 cm^2 4 days prior to herbicide application. The paddy was created by filling the 3 centimeter headspace of the pots with water. When required to ensure good germination and healthy plants, a fungicide treatment and/or other chemical or physical treatment was applied. The plants were grown for 4-14 days in a greenhouse with an approximate 14 hr photoperiod which was maintained at about 29° C. during the day and 26° C. during the night. Nutrients were added as Osmocote (17:6:10, N:P:K+minor nutrients) at 2 g per cup. Water was added on a regular basis to maintain the paddy flood, and supplemental lighting was provided with overhead metal halide 1000-Watt lamps as necessary. The plants were employed for testing when they reached the second or third true leaf stage.
# Treatments consisted of esters or salts of compound A, compound C, or compound D and various herbicidal components alone and in combination. For technical grade compounds, a weighed amount, determined by the highest rate to be tested, was placed in an individual 120 mL glass vial and was dissolved in 20 mL of acetone to obtain concentrated stock solutions. […] The concentrated stock solutions obtained were diluted with 20 mL of an aqueous mixture containing 2.5% Agri-dex crop oil concentrate (v/v). For formulated compounds, a measured amount, determined by the highest rate to be tested, was placed in an individual 120 mL glass vial and was dissolved in 20 mL of 2.5% (v/v) Agri-dex crop oil concentrate to obtain concentrated stock solutions. The concentrated stock solutions obtained were diluted with 20 mL of acetone. Applications were made by injecting an appropriate amount of the stock solution into the aqueous layer of the paddy. Control plants were treated in the same manner with the solvent blank. All treated plant material received the same concentration of acetone and crop oil concentrate.
# Forms of compounds A, C, and D were applied on an acid equivalent basis. Other herbicidal components were applied on an active ingredient basis and included acetolactate synthase (ALS)-inhibiting herbicides penoxsulam (triazolopyrimidine chemical class) applied as Grasp SC, […] (sulfonylurea chemical class) applied as Sirius G, and bensulfuron-methyl (sulfonylurea chemical class) applied as Londax; acetyl CoA carboxylase (ACCase) inhibiting herbicides cyhalofop-butyl applied as Clincher G and fenoxaprop-p-ethyl applied as Ricestar HT; auxinic herbicide quinclorac applied as Facet 75 DF; phytoene desaturase inhibiting herbicide norflurazon; and p-hydroxyphenylpyruvate dioxygenase (HPPD) inhibiting herbicide sulcotrione applied as Mikado.
# (§1) The treated plants and control plants were placed in a greenhouse as described above and water was added as needed to maintain a paddy flood. After 3 weeks the condition of the test plants as compared with that of the untreated plants was determined visually and scored on a scale of 0 to 100 percent where 0 corresponds to no injury and 100 corresponds to complete kill.
# [2] = test system: bird's-eye speedwell (Veronica persica L; VERPE); assay: Postemergence herbicidal activity of mixtures in cereal crops (greenhouse, visual injury); details: Veronica persica, post-emergence, read-out: VERPE Ob
# Procedure: (§2) The plants were grown for 7-36 days in a greenhouse with an approximate 14 hour photoperiod which was maintained at about 18° C. during the day and 17° C. during the night. Nutrients and water were added on a regular basis and supplemental lighting was provided with overhead metal halide 1000-Watt lamps as necessary. The plants were employed for testing when they reached the second or third true leaf stage.
# (§3) Treatments consisted of compound (as listed in Tables 1 through 64) and a second cereal herbicide alone and in combination. […] Control plants were sprayed in the same manner with the solvent blank.
# as §1, with “watered by sub-irrigation” for “water was added as needed”, “prevent wash-off of the test compounds.” for “maintain a paddy flood.”, “20-22 days,” for “3 weeks”, “control” for “untreated”
# (§4) The following equation was used to calculate the expected activity of mixtures containing two active ingredients, A and B: Expected=A+B−(A×B/100)
# [3] = test system: wild pansy (Viola tricolor L; VIOTR); assay: as above; details: Viola tricolor, post-emergence, read-out: VIOTR Ob
# Procedure: as §2, §3
# as §1, with “watered by sub-irrigation” for “water was added as needed”, “prevent wash-off of the test compounds.” for “maintain a paddy flood.”, “20-22 days,” for “3 weeks”, “control” for “untreated”
# as §4
# [4] = test system: black mustard (Brassica nigra L; BRSNI); assay: as above; details: Brassica, post-emergence, 50 g/ha alone; read-out: BRSNI Ob
# Procedure: Seeds of the desired test plant species were planted in Sun Gro MetroMix® 306 planting mixture, which typically has a pH of 6.0 to 6.8 and an organic matter content of about 30 percent, in plastic pots with a surface area of 103.2 square centimeters (cm^2). When required to ensure good germination and healthy plants, a fungicide treatment and/or other chemical or physical treatment was applied. The plants were grown for 7-36 days in a greenhouse with an approximate 14 hour photoperiod which was maintained at about 18° C. during the day and 17° C. during the night. Nutrients and water were added on a regular basis and supplemental lighting was provided with overhead metal halide 1000-Watt lamps as necessary. The plants were employed for testing when they reached the second or third true leaf stage.
# Treatments consisted of compound (as listed in Tables 1 through 64) and a second cereal herbicide alone and in combination. Weighed amounts of esters (methyl) or salts (TEA [triethylammonium], K [potassium]) of 4-amino-3-chloro -6-(4-chloro-2-fluoro-3-methoxyphenyl)pyridine-2-carboxylic acid (Compound A) or of 6-amino-5-chloro-2-(4-chloro-2-fluoro-3-methoxyphenyl)pyrimidine-4-carboxylic acid (Compound B), were placed in 25 milliliter (mL) glass vials and dissolved in a volume of 97:3 v/v acetone/DMSO to obtain 4.5 milligrams (mg) active ingredient (ai)/mL stock solutions. […] The concentrated stock solutions were diluted to 1.5 mg ai/mL with the addition of 2 volumes of an aqueous mixture containing acetone, water, isopropyl alcohol, DMSO, Agri-dex crop oil concentrate, and Triton® X-77 surfactant in a 64.7:26.0:6.7:2.0:0.7:0.01 v/v ratio. A dilution solution was prepared by mixing 1 volume of 97:3 v/v acetone/DMSO and 2 volumes of an aqueous mixture containing acetone, water, isopropyl alcohol, DMSO, Agri-dex crop oil concentrate, and Triton® X-77 surfactant in a 64.7:26.0:6.7:2.0:0.7:0.01 v/v ratio. Compound requirements are based upon a 12 mL application volume at a rate of 187 liters per hectare (L/ha). Spray solutions of the second cereal herbicide and experimental compound mixtures were prepared by adding the stock solutions to the appropriate amount of dilution solution to form 12 mL spray solution with active ingredients in two- and three-way combinations. Formulated compounds were applied to the plant material with an overhead Mandel track sprayer equipped with 8002E nozzles calibrated to deliver 187 L/ha over an application area of 0.503 square meters (m^2) at a spray height of 18 inches (43 cm) above average plant canopy. Control plants were sprayed in the same manner with the solvent blank.
# as §1, with “watered by sub-irrigation” for “water was added as needed”, “prevent wash-off of the test compounds.” for “maintain a paddy flood.”, “20-22 days,” for “3 weeks”, “control” for “untreated”
# Colby's equation was used to determine the herbicidal effects expected from the mixtures (Colby, S. R. 1967. Calculation of the synergistic and antagonistic response of herbicide combinations. Weeds 15:20-22.).
# as §4
# Cyperus iria L. (CYPIR) = assay: Postemergence herbicidal mixtures for weed control in direct seeded rice (greenhouse, visual % injury)
compound,measurement,setting,value
CCOC(=O)c1cnn(C)c1S(=O)(=O)NC(=O)Nc1nc(OC)cc(OC)n1 [Pyrazosulfuron-ethyl],% Injury Ob,"[1]; ECHCG, 5.25 g/ha alone",20%
CCC(C)(CC)c1cc(NC(=O)c2c(OC)cccc2OC)on1 [Isoxaben],pest or weed control at 31.25 g/ha,[2]; 31.25 g/ha alone,0%
same,pest or weed control at 31.25 g/ha,[3]; 31.25 g/ha alone,3%
CSc1nnc(C(C)(C)C)c(=O)n1N [Metribuzin],pest or weed control at 50 g/ha,[4],50%
same,pest or weed control at 50 g/ha,[2]; 50 g/ha alone,10%
same,pest or weed control at 50 g/ha,[3]; 50 g/ha alone,20%
CS(=O)(=O)c1ccc(C(=O)C2C(=O)CCCC2=O)c(Cl)c1 [Sulcotrione],% Injury ECHOR Ob,[1]; Sulcotrione 70 g/ha alone (Compound A Methyl half),10%
same,% Injury ECHOR Ob,[1]; Sulcotrione 70 g/ha alone (Compound A TEA half),10%
CCOc1c(Cl)ccc(-c2cc(N)c(Cl)c(C(=O)OC)n2)c1F [Compound D Methyl],% Injury CYPIR Ob,Cyperus iria L. (CYPIR); alone 8.75 g/ha,50%
same,% Injury CYPIR Ob,Cyperus iria L. (CYPIR); alone 35 g/ha,80%
